Here are results for 46 compounds from patent US8765786B2, “1-substituted indazole derivative” (Dainippon Sumitomo Pharma Co., Ltd., priority 2012, dated 2014).

T1 sequence (P36544 23-502): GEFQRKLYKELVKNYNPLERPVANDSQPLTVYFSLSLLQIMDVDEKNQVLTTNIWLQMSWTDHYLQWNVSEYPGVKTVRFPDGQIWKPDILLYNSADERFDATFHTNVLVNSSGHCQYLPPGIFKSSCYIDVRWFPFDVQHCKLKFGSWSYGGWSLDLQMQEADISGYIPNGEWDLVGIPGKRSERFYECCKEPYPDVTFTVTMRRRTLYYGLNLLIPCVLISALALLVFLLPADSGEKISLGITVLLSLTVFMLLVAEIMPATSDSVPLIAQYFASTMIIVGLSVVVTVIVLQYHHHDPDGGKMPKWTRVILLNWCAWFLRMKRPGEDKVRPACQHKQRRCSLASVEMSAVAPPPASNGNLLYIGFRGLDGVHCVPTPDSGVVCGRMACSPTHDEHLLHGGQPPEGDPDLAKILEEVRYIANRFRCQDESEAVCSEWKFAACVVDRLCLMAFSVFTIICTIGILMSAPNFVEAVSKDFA

The first test addresses T1, human α7 nAChR (Homo sapiens, UniProt P36544).
T1 construct: expressed in transfected cells; host or cells: GH4C1 cells derived from rat pituitary (ATCC CCL-82.2)
Put plainly: Evaluation of PAM activity with human α7 nACh receptor stably expressing cells (aequorin luminescence, FDSS7000). Conditions: result in words; ratio of RLU (Max-Min) to control wells, ACh EC20. It counts as cell-based. The text has this: Human α7 nAChR stably expressing cells were generated and cultured. In detail, GH4C1 cells derived from rat pituitary (cat#CCL-82.2, ATCC, USA) were used as a host cell. PcDNA3.1Zeo vector containing a nucleotide sequence encoding a protein GenBank BAC81731 and pcDNA3.1 vector containing human α7 nAChR gene (cat#V790-20, invitrogen, Carlsbad, Calif., USA) were transfected to the cells to give aequorins and human α7 nAChR stably expressing cells respectively. The aequorins and human α7 nAChR stably expressing cells were screened with Zeocin (cat#R25001, invitrogen, Carlsbad, Calif., USA) and Geneticin (cat #10131-027, invitrogen, Carlsbad, Calif., USA) respectively.
The cells were cultured in F-10 Nutrient Mixture (Ham) medium (cat #11550-043, invitrogen, Carlsbad, Calif., USA) containing 2.5% fetal bovine serum (cat #2917354, ICN Biomedicals, Inc, USA), 15% inactivated horse serum (cat #26050-088, invitrogen, Carlsbad, Calif., USA), 1 μg/mL Geneticin, and 5 μg/mL Puromycin (cat #14861-84, invitrogen, Carlsbad, Calif., USA), in a Collagen Type 1-coated dish (cat #4030-010, iwaki, Tokyo, Japan). During the culture, the medium was replaced with fresh medium in every 2 to 3 days, and the cells were treated with TrypLE Express (cat #45604-021, invitrogen, Carlsbad, Calif., USA) to collect them in every 7 days. Thus, the cells were subcultured.
7 Days after subculturing, the cells were treated with TrypLE Express to collect them when they were about 80% confluent. The cells were suspended in a reaction medium containing Hanks (cat #14065-056, invitrogen, Carlsbad, Calif., USA)/20 mmol/L Hepes (cat #15630-080, invitrogen, Carlsbad, Calif., USA), Buffer (pH 7.4), F-10 Nutrient Mixture (Ham), and 0.1 mg/mL Geneticin, and the suspension was seeded in a 384-well plate (cat #781090, Greiner, Germany) at 20000 cells/25 μL per well.
On the next day after seeding, Viviren (cat#E649X, Promega, Madison, Wis., USA) was added to the medium so that the final concentration could be 4 μmol/L (15 μL/well). The plates were centrifuged and then placed in the dark for 4 hours at room temperature.
Each of the test compounds was dissolved in DMSO to prepare each test sample at a concentration of 1000-fold the final concentration. To the solution was added Hanks/20 mM HEPES/0.2% BSA (cat#A3803, Sigma, St. Louis, Mo., USA), and the concentration was adjusted to 6-fold the final concentration.
FDSS7000 (Hamamatsu Photonics) was used to detect the luminescence signal evoked by α7 nAChR stimulation. The cells and a luminescent substrate were put on a plate, and the test sample was added thereto. […] After the addition of ACh, the luminescence signal (the central wavelength: 465 nm) was measured for 138 seconds to calculate RLU (Max-Min). The ratio of the RLU (Max-Min) of the test-compound-containing wells to that of the control wells was defined as PAM activity.
For `COc1ccc2c(cnn2C2CCN(C(=O)NC3CCCCC3)CC2)c1` [Example 40], the “PAM activity for α7 nAChR” value was “stronger PAM activity than others”.

Staying with this test, now noted: test compound 10 μmol/L; ACh added at EC20; ratio of RLU (Max-Min) of test wells to control wells.
Take `CCOCc1cccc2c1cnn2C1CCN(C(=O)NC2CCCCC2)CC1` [Example 167]: the “α7PAM (%) @ 10 μmol/L” value was determined as 434%. Still for that read-out and setting: the result for `CO[C@H]1CC[C@H](NC(=O)N2CCC(n3ncc4cc(-c5ccc(F)cc5)ccc43)CC2)CC1` [Example 155] reads 210%; that for `O=C(NC1CCOCC1)N1CCC(n2ncc3cc(C(F)(F)F)ccc32)CC1` [Example 297], 340%. On the same count and under the same terms, the result for `[2H]C([2H])([2H])O[C@H]1CC[C@H](NC(=O)N2CCC(n3nc(C4CCOCC4)c4cc(C)ccc43)CC2)CC1` [Example 316] reads 807%; that for `O=C(NC1CCOCC1)N1CCC(n2ncc3cc(C4CC4)ccc32)CC1` [Example 75], 621%. As to `CCOc1cccc2c1cnn2C1CCN(C(=O)NC2CCC(F)(F)CC2)CC1` [Example 192], the “α7PAM (%) @ 10 μmol/L” value is 699%. The same measure, in the same setting: next, `[2H]C([2H])([2H])O[C@H]1CC[C@H](NC(=O)N2CCC(n3ncc4cc(CC)ccc43)CC2)CC1` [Example 325]: 997%; `COc1nn(C2CCN(C(=O)N[C@H]3CC[C@H](OC)CC3)CC2)c2ccc(C)cc12` [Example 147]: 181%.

Take `COCc1cccc2c1cnn2C1CCN(C(=O)NC2CCCCC2)CC1` [Example 165]: the “α7PAM (%) @ 10 μmol/L” value was 442%. The same measure, in the same setting: next, `[2H]C([2H])([2H])O[C@H]1CC[C@H](NC(=O)N2CCC(n3ncc4cc(C)ccc43)CC2)CC1` [Example 295, 4-(5-methyl-1H-indazol-1-yl)-N-{trans-4-[(^2H3)methoxy]cyclohexyl}piperidine-1-carboxamide]: 1143%; `COCC1CCC(NC(=O)N2CCC(n3ncc4cc(Br)ccc43)CC2)CC1` (centres unmarked) [Example 238]: 1031%; `COC(C)c1c(C)ccc2c1cnn2C1CCN(C(=O)NC2CCC(F)(F)CC2)CC1` (centres unmarked) [Example 232]: 860%. As to `CC(C)Oc1cccc2c1cnn2C1CCN(C(=O)NC2CCC(F)(F)CC2)CC1` [Example 183], the “α7PAM (%) @ 10 μmol/L” value was 342%. For the compound `CCO[C@H]1CC[C@H](NC(=O)N2CCC(n3ncc4c(C5CC5)cccc43)CC2)CC1` [Example 44], the “α7PAM (%) @ 10 μmol/L” value worked out at 322%. The same measure, in the same setting: next, `O=C(C1CCOCC1)N1CCC(n2ncc3cc(Br)ccc32)CC1` [Example 102]: 228%; `Cc1ccc2c(cnn2C2CCN(C(=O)C3CCC(F)(F)CC3)CC2)c1` [Example 138]: 642%. On the same count and under the same terms, the result for `CCc1nn(C2CCN(C(=O)NC3CCOCC3)CC2)c2ccc(OC)cc12` [Example 244] reads 324%; that for `N#Cc1ccc2c(cnn2C2CCN(C(=O)NC3CCC(F)(F)CC3)CC2)c1` [Example 198], 268%; that for `O=C(NC1CCC(F)(F)CC1)N1CCC(n2ncc3c(OC4CC4)cccc32)CC1` [Example 250], 1215%.

Take `[2H]C([2H])([2H])O[C@H]1CC[C@H](NC(=O)N2CCC(n3ncc4cc(C(F)(F)F)ccc43)CC2)CC1` [Example 178, N-{trans-4-[(^2H3)methoxy]cyclohexyl}-4-[5-(trifluoromethyl)-1H-indazol-1-yl]piperidine-1-carboxamide]: the “α7PAM (%) @ 10 μmol/L” value was 524%. On the same count and under the same terms, next, `COCC(C)c1ccc2c(cnn2C2CCN(C(=O)NC3CCC(F)(F)CC3)CC2)c1` (centres unmarked) [Example 252]: 364%; `[2H]C([2H])([2H])Oc1nn(C2CCN(C(=O)NC3CCOCC3)CC2)c2ccc(C(F)(F)F)cc12` [Example 309]: 406%; `CCc1cnc2c(cnn2C2CCN(C(=O)NC3CCOCC3)CC2)c1` [Example 101]: 338%. As to `CCc1cccc2c1cnn2C1CCN(C(=O)N[C@H]2CC[C@@H](OC)CC2)CC1` [Example 158], the “α7PAM (%) @ 10 μmol/L” value amounted to 292%. On the same count and under the same terms, next, `COCC1CCC(NC(=O)N2CCC(n3ncc4cc(C5CC5)ccc43)CC2)CC1` (centres unmarked) [Example 221]: 1942%; `COc1c(Br)ccc2c1cnn2C1CCN(C(=O)NC2CCC(F)(F)CC2)CC1` [Example 284]: 1109%. Turning to `COCc1nn(C2CCN(C(=O)NC3CCCCC3)CC2)c2ccc(C)cc12` [Example 68], the “α7PAM (%) @ 10 μmol/L” value is given as 430%.

As to `CCOc1nn(C2CCN(C(=O)NC3CCC(OC)CC3)CC2)c2ccc(CC)cc12` (centres unmarked) [Example 57], the “α7PAM (%) @ 10 μmol/L” value is 382%.

As for `CCOc1ccc2c(cnn2C2CCN(C(=O)c3ccc(F)cc3)CC2)c1` [Example 112], the “α7PAM (%) @ 10 μmol/L” value worked out at 265%.

On to `[2H]C([2H])([2H])O[C@H]1CC[C@H](NC(=O)N2CCC(n3ncc4cc(OC(F)(F)F)ccc43)CC2)CC1` [Example 226, N-{trans-4-[(^2H3)methoxy]cyclohexyl}-4-[5-(trifluoromethoxy)-1H-indazol-1-yl]piperidine-1-carboxamide], for which the “α7PAM (%) @ 10 μmol/L” value worked out at 594%. Still for that read-out and setting: next, `CCc1ccc2c(c1)c(OC(C)C)nn2C1CCN(C(=O)NC2CCCCC2)CC1` [Example 153]: 386%; `CCc1ccc2c(c1)c(OC(C)C)nn2C1CCN(C(=O)NC2CCC(OC)CC2)CC1` (centres unmarked) [Example 59]: 433%. Same read-out and setting: next, `O=C(Nc1ccc(C(F)(F)F)nc1)N1CCC(n2ncc3cc(C4CC4)ccc32)CC1` [Example 187]: 220%. On the same count and under the same terms, next, `COc1ccc2c(cnn2C2CCN(C(=O)NC3CCCCC3)CC2)c1` [Example 40]: 3205%; `Cc1c(OC(F)F)ccc2c1cnn2C1CCN(C(=O)NC2CCOCC2)CC1` [Example 294]: 523%; `CC(C)Oc1cccc2c1cnn2C1CCN(C(=O)NC2CCCCC2)CC1` [Example 180]: 274%.

Turning to `CCc1ccc2c(cnn2C2CCN(C(=O)C3CCC(OC)CC3)CC2)c1` (centres unmarked) [Example 117], the “α7PAM (%) @ 10 μmol/L” value came out at 209%. As to `CCc1ccc2c(c1)c(OC)nn2C1CCN(C(=O)NC2CCC(F)(F)CC2)CC1` [Example 149], the “α7PAM (%) @ 10 μmol/L” value is given as 1053%. Still for that read-out and setting: the result for `COc1ccc2c(c1)c(C)nn2C1CCN(C(=O)NC2CCC(F)(F)CC2)CC1` [Example 243] reads 842%. Still for that read-out and setting: the result for `COc1nn(C2CCN(C(=O)NC3CCOCC3)CC2)c2ccc(C(F)(F)F)cc12` [Example 266] reads 448%; that for `COC1CC1c1ccc2c(cnn2C2CCN(C(=O)N[C@H]3CC[C@H](OC)CC3)CC2)c1` (some centres unmarked) [Example 246], 364%; that for `CC(C)Oc1ccc2c(cnn2C2CCN(C(=O)C3CCC(F)(F)CC3)CC2)c1` [Example 116], 279%.

The same test, now with this note: test compound 10 μmol/L; ACh added at EC20; ratio of RLU (Max-Min) of test wells to control wells; read-out: α7PAM (%) @ 10 μmol/L.
Consider `CCc1ccc2c(cnn2[C@H]2CC[C@@H](C(=O)NC3CCC(F)(F)CC3)CC2)c1` [Example 6, cis-N-(4,4-difluorocyclohexyl)-4-(5-ethyl-1H-indazol-1-yl)cyclohexanecarboxamide], for which the activity at 10 µM worked out at 285%. Same read-out and setting: the result for `CO[C@H]1CC[C@H](NC(=O)N2CCC(n3ncc4c(C)c(C5CC5)ccc43)CC2)CC1` [Example 277, 4-(5-cyclopropyl-4-methyl-1H-indazol-1-yl)-N-(trans-4-methoxycyclohexyl)piperidine-1-carboxamide] reads 729%; that for `CCOc1ccc2c(cnn2C2CCN(C(=O)C3CCC(F)(F)CC3)CC2)c1` [Example 3, (4,4-difluorocyclohexyl)(4-(5-ethoxy-1H-indazol-1-yl)piperidin-1-yl)methanone], 512%; that for `CC(C)Oc1ccc2c(cnn2C2CCN(C(=O)NC3CCC(F)(F)CC3)CC2)c1` [Example 46, N-(4,4-difluorocyclohexyl)-4-(5-isopropoxy-1H-indazol-1-yl)piperidine-1-carboxamide], 544%.
